Peptide text beside a SMILES is read from it. * marks the point of attachment. Cbz = O=C(OCc1ccccc1)*
Key:
[1] = test system: A3G (Vif-mediated degradation); experiment: A3G level in the presence of Vif by Western blotting in HEK293T cells; format: cell-based, human; details: proteasome inhibitor positive control; A3G without Vif = 100%, Vif alone 31%
CEM cells [2] = experiment: Growth of infected CEM cells, trypan blue staining; format: cell-based; details: infected cells with 50 μM peptide, trypan blue staining every other day
CEM cells [3] = experiment: Cytotoxicity assay (CellTiter-Glo) in CEM cells; format: cell-based; details: 2-fold dilutions from 100 μM, 48 h, DMSO group = 100%
CEM-SS cells [4] = experiment: Cytotoxicity assay (CellTiter-Glo) in CEM-SS cells; format: cell-based; details: 2-fold dilutions from 100 μM, 48 h, DMSO group = 100%
CEM-SS cells [5] = experiment: Growth of infected CEM-SS cells, trypan blue staining; format: cell-based; details: infected cells with 50 μM peptide, trypan blue staining every other day
[6] = test system: HIV-1 NL4-3 packaged with A3G; format: cell-based; details: peptides at 25, 50 or 100 μM; DMSO group set to 100%; TZM-bl read-out
[7] = molecular target: wild-type (WT) Vif displayed on yeast cells (HIV-1) (UniProt P69723); experiment: flow cytometry on cells
Sequence of UniProt P69723 (P69723 whole entry): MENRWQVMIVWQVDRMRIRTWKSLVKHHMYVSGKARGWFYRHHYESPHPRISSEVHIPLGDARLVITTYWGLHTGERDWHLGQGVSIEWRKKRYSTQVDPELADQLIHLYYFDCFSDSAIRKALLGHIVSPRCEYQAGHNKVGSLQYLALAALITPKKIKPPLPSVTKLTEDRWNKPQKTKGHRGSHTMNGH

## CC(C)C[C@@H](C=O)NC(=O)[C@H](CC(C)C)NC(=O)[C@H](CC(C)C)NC(=O)OCc1ccccc1 [MG132] (Cbz-Leu-Leu-Leu-aldehyde)
[1]
  A3G level in the presence of Vif: 73%

## CC[C@H](C)[C@H](NC(=O)[C@H](C)NC(=O)[C@H](CC(C)C)NC(=O)CNC(C)=O)C(=O)N[C@H](C(=O)N[C@H](C(=O)N[C@@H](Cc1ccc(O)cc1)C(=O)N[C@@H](Cc1c[nH]c2ccccc12)C(=O)NCC(=O)N[C@@H](CC(C)C)C(=O)N[C@@H](Cc1c[nH]cn1)C(=O)N[C@H](C(=O)NCC(=O)N[C@@H](CCC(=O)O)C(=O)N[C@@H](CCCNC(=N)N)C(=O)NCC(N)=O)[C@@H](C)O)[C@@H](C)O)[C@@H](C)O [VMP-63]
CEM cells [2]
  growth of CEM cells: not affected
CEM cells [3]
  cytotoxicity on CEM cells: almost no cytotoxicity
CEM-SS cells [4]
  cytotoxicity on CEM-SS cells: almost no cytotoxicity
CEM-SS cells [5]
  growth of CEM-SS cells: not affected

## CC(=O)N[C@@H](Cc1c[nH]c2ccccc12)C(=O)NCC(=O)N[C@@H](CC(C)C)C(=O)N[C@@H](Cc1c[nH]cn1)C(=O)N[C@H](C(=O)NCC(=O)N[C@@H](CCC(=O)O)C(=O)N[C@@H](CCCNC(=N)N)C(=O)NCC(N)=O)[C@@H](C)O [VMP-70] (Ac-WGLHTGERG-NH2)
[6]
  effect on infectivity of the A3G-containing viruses: did not affect the viral infectivity

## CC[C@H](C)[C@H](NC(=O)[C@H](C)NC(=O)[C@H](CO)NC(=O)[C@H](CC(N)=O)NC(=O)[C@H](CO)NC(=O)[C@H](Cc1ccccc1)NC(=O)[C@H](CS)NC(=O)[C@H](CC(=O)O)NC(=O)[C@H](Cc1ccccc1)NC(=O)[C@H](Cc1ccc(O)cc1)NC(=O)[C@H](Cc1ccc(O)cc1)NC(=O)[C@H](CC(C)C)NC(=O)[C@H](CCCNC(=N)N)NC(C)=O)C(N)=O [VMP-108]
CEM cells [2]
  growth of CEM cells: not affected
CEM cells [3]
  cytotoxicity on CEM cells: almost no cytotoxicity
CEM-SS cells [4]
  cytotoxicity on CEM-SS cells: almost no cytotoxicity
CEM-SS cells [5]
  growth of CEM-SS cells: not affected

## CC[C@H](C)[C@H](NC(=O)[C@H](CCSC)NC(=O)[C@@H](NC(=O)[C@H](CCC(=O)O)NC(C)=O)C(C)C)C(=O)N[C@H](C(=O)N[C@@H](Cc1c[nH]c2ccccc12)C(=O)N[C@@H](CCC(=O)O)C(=O)N[C@H](C(=O)N[C@@H](CC(=O)O)C(=O)N[C@@H](CCCNC(=N)N)C(=O)N[C@@H](CCSC)C(=O)N[C@@H](CCCNC(=N)N)C(=O)N[C@H](C(=O)N[C@H](C(=O)N[C@H](C(N)=O)[C@@H](C)O)[C@@H](C)O)[C@@H](C)CC)C(C)C)C(C)C [VMP-6] (Ac-EVMIVWEVDRMRITT-NH2)
[6]
  effect on infectivity of the A3G-containing viruses: did not affect the viral infectivity

## CC(=O)N[C@@H](Cc1ccc(O)cc1)C(=O)N[C@@H](Cc1ccccc1)C(=O)N[C@@H](CC(=O)O)C(=O)N[C@@H](CS)C(=O)N[C@@H](Cc1ccccc1)C(=O)N[C@@H](CO)C(=O)N[C@@H](CC(N)=O)C(=O)N[C@@H](CO)C(=O)N[C@@H](C)C(=O)N[C@H](C(=O)N[C@@H](CCCNC(=N)N)C(=O)N[C@@H](CCCCN)C(=O)N[C@H](C(N)=O)C(C)C)[C@@H](C)O [VMP-111] (Ac-YFDCFSNSATRKV-NH2)
[6]
  effect on infectivity of the A3G-containing viruses: did not affect the viral infectivity

## CBFβ protein, purified (from UniProt Q13951 1-182) (natural protein)
[7]
  FITC-positive cells: 0.076%

Reference: article PMC11053914 (Viruses, 2024)
